Assay results reported in publication PMC11141866, “Pyrimidine depletion enhances targeted and immune therapy combinations in acute myeloid leukemia” (JCI Insight, 2024).

Test system: THP-1 cells
Experiment: E. coli phagocytosis assay
Type: cell-based, human
Conditions: THP-1 treated 6 days
Method: The THP-1 AML cell line was treated for 6 days, then washed and cocultured with pHrodo Deep Red E. coli BioParticles (P35360, Invitrogen) per the manufacturer’s protocol. Ten-minute pretreatment with 10 μM of cytochalasin D (actin polymerization inhibitor) was used as a negative control for phagocytosis. After 90 minutes of incubation with E. coli, cells were washed and run on the Cytek Aurora spectral flow cytometer.

With CCCCOc1cccc(-c2ccc(-c3cc(C(=O)O)c4cc(F)ccc4n3)cc2)c1 [HOSU-53] the “phagocytosis of E. coli” value was “enhanced ability to phagocytose E. coli”.
